Experimental data: ChEMBL document CHEMBL1932914, “A new class of non-thiazolidinedione, non-carboxylic-acid-based highly selective peroxisome proliferator-activated receptor (PPAR) γ agonists: design and synthesis of benzylpyrazole acylsulfonamides” (Bioorg Med Chem, 2012)
pEC50, pIC50: −log10 of the molar value. Calls of active or inactive are those of the source. The calls are words filed in the database; no cut-off is given here.

Legend:
[1] = target: T1, Peroxisome proliferator-activated receptor gamma (Homo sapiens, UniProt P37231); experiment: Agonist activity at full length human PPARgamma1 transfected in […] cells co expressing RXRalpha and PPRE after 1 day by luciferase reporter gene transactivation assay; format: functional, cell-based, CHO-K1; settings: for pEC50: read-out: EC50
T1 sequence (P37231 whole entry): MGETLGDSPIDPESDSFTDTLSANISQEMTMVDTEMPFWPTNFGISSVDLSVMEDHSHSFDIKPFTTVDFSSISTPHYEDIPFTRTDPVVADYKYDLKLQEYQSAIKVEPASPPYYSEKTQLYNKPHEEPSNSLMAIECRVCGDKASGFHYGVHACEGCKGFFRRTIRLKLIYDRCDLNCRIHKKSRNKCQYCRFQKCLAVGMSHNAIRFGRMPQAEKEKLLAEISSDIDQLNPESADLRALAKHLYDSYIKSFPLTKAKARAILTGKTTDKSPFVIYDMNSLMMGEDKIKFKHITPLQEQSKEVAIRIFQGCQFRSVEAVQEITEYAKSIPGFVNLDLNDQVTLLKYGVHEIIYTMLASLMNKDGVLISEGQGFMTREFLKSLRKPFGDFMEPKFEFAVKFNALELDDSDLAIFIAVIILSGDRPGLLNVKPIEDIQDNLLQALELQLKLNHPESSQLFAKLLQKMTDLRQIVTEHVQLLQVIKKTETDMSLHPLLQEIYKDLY

[2] = target: T2, Peroxisome proliferator-activated receptor alpha (Homo sapiens, UniProt Q07869); experiment: Agonist activity at human PPARalpha expressed in COS-1 cells after 1 day by luciferase reporter gene transactivation assay; format: functional, cell-based
T2 sequence (Q07869 whole entry): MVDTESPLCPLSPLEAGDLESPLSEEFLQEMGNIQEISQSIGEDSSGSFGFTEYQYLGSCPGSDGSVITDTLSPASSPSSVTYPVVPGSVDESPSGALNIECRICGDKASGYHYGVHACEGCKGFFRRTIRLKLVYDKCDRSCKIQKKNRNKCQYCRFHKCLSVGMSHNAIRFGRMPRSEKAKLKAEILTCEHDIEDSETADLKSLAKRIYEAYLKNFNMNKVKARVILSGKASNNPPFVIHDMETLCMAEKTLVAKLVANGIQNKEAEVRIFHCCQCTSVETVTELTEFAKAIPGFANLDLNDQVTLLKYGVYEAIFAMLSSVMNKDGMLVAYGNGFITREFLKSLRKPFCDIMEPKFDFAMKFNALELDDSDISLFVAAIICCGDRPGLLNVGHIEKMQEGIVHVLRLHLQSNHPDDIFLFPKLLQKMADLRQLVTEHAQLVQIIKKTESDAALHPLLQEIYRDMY

[3] = target: T3, Peroxisome proliferator-activated receptor delta (Homo sapiens, UniProt Q03181); experiment: Agonist activity at human PPARdelta expressed in COS-1 cells after 2 days by luciferase reporter gene transactivation assay; format: functional, cell-based
T3 sequence (Q03181 whole entry): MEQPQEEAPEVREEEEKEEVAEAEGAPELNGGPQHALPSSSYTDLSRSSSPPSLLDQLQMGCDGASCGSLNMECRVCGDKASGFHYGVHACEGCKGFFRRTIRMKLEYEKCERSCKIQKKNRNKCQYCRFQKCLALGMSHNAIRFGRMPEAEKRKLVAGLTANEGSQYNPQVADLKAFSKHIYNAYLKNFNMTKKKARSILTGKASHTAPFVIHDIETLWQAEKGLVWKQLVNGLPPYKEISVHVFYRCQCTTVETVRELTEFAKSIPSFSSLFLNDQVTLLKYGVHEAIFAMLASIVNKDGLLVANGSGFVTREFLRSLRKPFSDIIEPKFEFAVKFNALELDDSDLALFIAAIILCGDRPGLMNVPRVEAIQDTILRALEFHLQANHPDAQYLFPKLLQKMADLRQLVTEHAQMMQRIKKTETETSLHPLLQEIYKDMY

[4] = Clearance in human liver microsomes at 1 umol/L after 20 mins by HPLC analysis; format: ADME, Microsome; settings: read-out: CLH
Homo sapiens = species: Homo sapiens; experiment: Selectivity ratio of EC50 for human PPARalpha to EC50 for human PPARgamma1
[5] = target: PPAR delta/gamma (Homo sapiens) (UniProt P37231+Q03181); experiment: Selectivity ratio of EC50 for human PPARdelta to EC50 for human PPARgamma1
[6] = target: T1, Peroxisome proliferator-activated receptor gamma; experiment: Displacement of [3H]-AD-5061 from human GST-tagged PPARgamma
[7] = target: T4, Peroxisome proliferator-activated receptor alpha (Homo sapiens) (UniProt Q07869); experiment: Binding affinity to PPARalpha at 10 uM by competitive binding assay
T4 sequence (whole entry): T2 sequence (Q07869 whole entry)

[8] = target: T5, Peroxisome proliferator-activated receptor delta (Homo sapiens) (UniProt Q03181); experiment: Binding affinity to PPARdelta at 10 uM by competitive binding assay
T5 sequence (whole entry): T3 sequence (Q03181 whole entry)

Rattus norvegicus [9] = experiment: Antidiabetic activity in po dosed fatty Wister rat assessed as reduction of plasma glucose level administered once daily for 7 days; format: functional; settings: for ED25: 168 h
[10] = Clearance in rat liver microsomes at 1 umol/L after 20 mins by HPLC analysis; format: ADME, Microsome; settings: read-out: CLH
Rattus norvegicus [11] = experiment: Antidiabetic activity in po dosed fatty Wister rat assessed as reduction of triglyceride level administered once daily for 7 days; format: functional; settings: for ED25: 168 h
[12] = target: T4, Peroxisome proliferator-activated receptor alpha (Homo sapiens); experiment: Agonist activity at human PPARalpha expressed in COS-1 cells at 10 uM after 1 day by luciferase reporter gene transactivation assay; format: functional, cell-based

pEC50 [1] | pEC50 [2] | pEC50 [3] | microsomal CLint at 1 µM [4] | Ratio EC50 (Homo sapiens) | Ratio EC50 [5] | Compound | also measured
7.77 | < 5.00 | < 5.00 |  |  |  | CC(C)CCS(=O)(=O)NC(=O)CCc1cc(OC(C)C)nn1Cc1ccc(Cl)cc1Cl | 
 | < 5.00 | < 5.00 | 29 µL/min/mg | > 500 | > 500 | CCCCCS(=O)(=O)NC(=O)/C=C/c1cc(OC(C)C)nn1Cc1ccc(Cl)cc1Cl | 
 | < 5.00 | < 5.00 | 32 µL/min/mg | > 500 | > 500 | CC(C)CCS(=O)(=O)NC(=O)/C=C/c1cc(OC(C)C)nn1Cc1ccc(C(F)(F)F)cc1Cl | pIC50 [6]: 7.82; Activity [7]: inactive; Activity [8]: inactive; Activity (Rattus norvegicus [9]): Dose-dependent effect; ED25 (Rattus norvegicus [9]): 0.21 mg/kg; microsomal CLint at 1 µM [10]: 51 µL/min/mg; Activity (Rattus norvegicus [11]): Dose-dependent effect; ED25 (Rattus norvegicus [11]): 0.09 mg/kg; Activity [12]: 48%
6.30 |  |  |  |  |  | CC(C)Oc1cc(CCC(=O)O)n(Cc2ccc(Cl)cc2Cl)n1 | 
6.80 |  |  |  |  |  | CCCS(=O)(=O)NC(=O)CCc1cc(OC(C)C)nn1Cc1ccc(Cl)cc1Cl | 
6.92 | < 5.00 | < 5.00 | 224 µL/min/mg |  |  | CCCCCS(=O)(=O)NC(=O)CCc1cc(OCc2ccccn2)nn1Cc1ccc(Cl)cc1Cl | 
6.35 |  |  |  |  |  | CC(C)Oc1cc(CCC(=O)NS(C)(=O)=O)n(Cc2ccc(Cl)cc2Cl)n1 | 
7.17 |  |  |  |  |  | CCCCCS(=O)(=O)NC(=O)CCCc1cc(OCCCC)nn1Cc1ccc(Cl)cc1Cl | 
 |  |  | 192 µL/min/mg | > 500 | > 500 | CCCCCS(=O)(=O)NC(=O)CCc1cc(OC(C)C)nn1Cc1ccc(Cl)cc1Cl | Activity (Rattus norvegicus [9]): inactive; microsomal CLint at 1 µM [10]: 128 µL/min/mg
6.59 |  |  | 107 µL/min/mg |  |  | CC(C)Oc1cc(CCC(=O)NS(=O)(=O)Cc2ccccc2)n(Cc2ccc(Cl)cc2Cl)n1 | 
7.85 | < 5.00 | < 5.00 | 100 µL/min/mg |  |  | CCCCCS(=O)(=O)NC(=O)CCc1cc(OCc2ccccc2)nn1Cc1ccc(Cl)cc1Cl | 
6.96 | < 5.00 | < 5.00 |  |  |  | CC(C)Oc1cc(CCC(=O)NS(=O)(=O)c2ccccc2)n(Cc2ccc(Cl)cc2Cl)n1 | 
8.05 | < 5.00 | < 5.00 | 34 µL/min/mg | > 500 | > 500 | COCCOc1cc(/C=C/C(=O)NS(=O)(=O)CCC(C)C)n(Cc2ccc(C(F)(F)F)cc2Cl)n1 | Activity [12]: 47%
8.00 | < 5.00 | < 5.00 | 163 µL/min/mg | > 500 | > 500 | CCCCCS(=O)(=O)NC(=O)CCc1cc(OC(C)C)nn1Cc1ccc(C(F)(F)F)cc1Cl | pIC50 [6]: 7.68; Activity [7]: inactive; Activity [8]: inactive
8.09 | < 5.00 | < 5.00 | 99 µL/min/mg | > 500 | > 500 | CCCCCS(=O)(=O)NC(=O)/C=C/c1cc(C(C)C)nn1Cc1ccc(Cl)cc1Cl | 
 |  |  |  |  |  | CCCCCS(=O)(=O)NC(=O)c1cc(OCCCC)nn1Cc1ccc(Cl)cc1Cl | EC50 ([1]; cho-k1): Not Active
7.40 | < 5.00 | < 5.00 | 165 µL/min/mg |  |  | CCCCS(=O)(=O)NC(=O)CCc1cc(OC(C)C)nn1Cc1ccc(Cl)cc1Cl | 
7.96 | < 5.00 | < 5.00 | 111 µL/min/mg |  |  | CCCCCS(=O)(=O)NC(=O)CCc1cc(-c2ccccc2)nn1Cc1ccc(Cl)cc1Cl | 
7.89 | < 5.00 | < 5.00 | 124 µL/min/mg | > 500 | > 500 | CCCCCS(=O)(=O)NC(=O)CCc1cc(C(C)C)nn1Cc1ccc(Cl)cc1Cl | 
6.82 | < 5.00 | < 5.00 |  |  |  | CC(C)Oc1cc(CCC(=O)NS(=O)(=O)C2CCCCC2)n(Cc2ccc(Cl)cc2Cl)n1 | 
< 5.00 |  |  |  |  |  | CCCCCS(=O)(=O)NC(=O)Cc1cc(OCCCC)nn1Cc1ccc(Cl)cc1Cl | 
7.51 | < 5.00 | < 5.00 | 144 µL/min/mg |  |  | CCCCCS(=O)(=O)NC(=O)CCc1cc(OCCOC)nn1Cc1ccc(Cl)cc1Cl | 
 | < 5.00 | < 5.00 | 54 µL/min/mg | > 500 | > 500 | CCCCCS(=O)(=O)NC(=O)/C=C/c1cc(C2CC2)nn1Cc1ccc(C(F)(F)F)cc1Cl | pIC50 [6]: 7.92; Activity [7]: inactive; Activity [8]: inactive; Activity (Rattus norvegicus [9]): Dose-dependent effect; ED25 (Rattus norvegicus [9]): 0.42 mg/kg; microsomal CLint at 1 µM [10]: 116 µL/min/mg; Activity (Rattus norvegicus [11]): Dose-dependent effect; ED25 (Rattus norvegicus [11]): 0.55 mg/kg
7.68 | < 5.00 | < 5.00 |  |  |  | CCCCCCS(=O)(=O)NC(=O)CCc1cc(OC(C)C)nn1Cc1ccc(Cl)cc1Cl | 
7.54 |  |  |  |  |  | CCCCCS(=O)(=O)NC(=O)CCCCc1cc(OCCCC)nn1Cc1ccc(Cl)cc1Cl | 
 | < 5.00 | < 5.00 |  |  |  | CCCCCS(=O)(=O)NC(=O)CCc1cc(OCCCC)nn1Cc1ccc(Cl)cc1Cl | 
 | < 5.00 | < 5.00 | 136 µL/min/mg | > 500 | > 500 | CCCCCS(=O)(=O)NC(=O)CCc1cc(C(C)C)nn1Cc1ccc(C(F)(F)F)cc1Cl | 
 | < 5.00 | < 5.00 | 26 µL/min/mg | > 500 | > 500 | CCCCCS(=O)(=O)NC(=O)/C=C/c1cc(OC(C)C)nn1Cc1ccc(C(F)(F)F)cc1Cl | pIC50 [6]: 7.64; Activity [7]: inactive; Activity [8]: inactive; Activity (Rattus norvegicus [9]): Dose-dependent effect; ED25 (Rattus norvegicus [9]): 0.12 mg/kg; microsomal CLint at 1 µM [10]: 33 µL/min/mg; Activity (Rattus norvegicus [11]): Dose-dependent effect; ED25 (Rattus norvegicus [11]): 0.04 mg/kg
7.89 | < 5.00 | < 5.00 | 78 µL/min/mg | > 500 | > 500 | CCCCCS(=O)(=O)NC(=O)CCc1cc(C2CC2)nn1Cc1ccc(C(F)(F)F)cc1Cl | 
